In BindingDB's records for patent US12065430 (Taiho Pharmaceutical, 2024):

Biological target: T1, Son of sevenless homolog 1 [564-1049]/GTPase KRas [G12C] (UniProt P01116+Q07889, G12C)
T1 construct: 564-1049
Assay: Evaluation of Inhibitory Activity of Compounds on KRAS G12C Nucleotide (GDP-GTP) Exchange Reaction
Experimental: The inhibitory activity of compounds on exchange reaction of GDP into GppNHp in Bodipy (trademark) FL-bound KRAS G12C was examined by fluorescence measurement using human recombinant KRAS G12C and SOS1 proteins.For the preparation of KRAS G12C to which Bodipy FL GDP was bound, first, […] KRAS G12C (amino acid region: 1-169) and 1 mM Bodipy FL GDP (Invitrogen, G22360) were incubated for 1 hour in a buffer (20 mM Tris-HCl (pH 7.5), 50 mM NaCl, 1 mM DTT) in ice in the presence of 2.5 mM EDTA. Thereafter, MgCl2 with a final concentration of 10 mM was added, and the mixture was incubated at room temperature for 30 minutes. The protein was allowed to pass through a NAP-5 column to remove free nucleotides and was used for compound evaluation.For the measurement of the inhibitory activity of compounds on nucleotide exchange reaction, first, the compound of the present invention was diluted stepwise with dimethyl sulfoxide (DMSO). Subsequently, a solution of the gradually diluted compound of the present invention in DMSO (the final concentration of DMSO: 5%) and KRAS G12C (25 nM) bound to Bodipy FL GDP were added to a reaction buffer (20 mM Tris-HCl (pH 7.5), 100 mM NaCl, 1 mM MgCl2, 2 mM DTT, 0.1% Tween20), followed by preincubation at 25° C. for 4 hours. Thereafter, Son of Sevenless Homolog 1 (SOS1, amino acid region: 564-1049) and GppNHp (GMPPNP, Jena Bioscience GmbH, NU-401-50) were added such that their final concentration was 100 nM and 1 μM respectively, followed by reaction for 30 minutes. The change in fluorescence intensity of Bodipy FL (excitation wavelength: 485 nm, fluorescence wavelength: 520 nm) immediately after the start of reaction and after 30 minutes from the start of reaction was standardized. The signal value for only DMSO was determined to be 0% inhibition, and the signal value for no addition of GppNHp was determined to be 100% inhibition. The compound concentration at which 50% inhibition is achieved was determined to be IC50 (nM), and was calculated.

T1 sequence (P01116 whole entry G12C): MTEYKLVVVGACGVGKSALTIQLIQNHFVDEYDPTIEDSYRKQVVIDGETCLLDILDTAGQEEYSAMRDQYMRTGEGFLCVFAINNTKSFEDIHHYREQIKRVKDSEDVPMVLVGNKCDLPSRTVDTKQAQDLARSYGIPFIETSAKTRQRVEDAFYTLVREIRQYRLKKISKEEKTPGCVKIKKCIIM
T1 sequence (Q07889 564-1049): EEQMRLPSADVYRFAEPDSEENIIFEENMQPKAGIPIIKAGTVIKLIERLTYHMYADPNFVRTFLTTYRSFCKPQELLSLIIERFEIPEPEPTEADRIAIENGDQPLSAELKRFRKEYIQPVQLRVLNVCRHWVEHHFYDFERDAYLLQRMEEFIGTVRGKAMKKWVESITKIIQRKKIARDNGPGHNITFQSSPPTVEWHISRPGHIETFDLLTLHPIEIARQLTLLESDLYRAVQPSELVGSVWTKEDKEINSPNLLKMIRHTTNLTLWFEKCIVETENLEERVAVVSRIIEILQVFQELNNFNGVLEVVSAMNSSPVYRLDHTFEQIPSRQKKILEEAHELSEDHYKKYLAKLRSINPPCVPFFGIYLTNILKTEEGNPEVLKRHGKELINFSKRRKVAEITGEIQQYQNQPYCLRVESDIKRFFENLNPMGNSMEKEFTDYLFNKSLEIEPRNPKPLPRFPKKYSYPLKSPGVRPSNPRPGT

Compound	IC50 [nM]
C=CC(=O)N1CC(NC(=O)c2c(C#N)nc(CNc3n[nH]c4cc(Cl)c(C(C)(C)C)cc34)n2C)C1 [US12065430, Example 28]	70
C=CC(=O)N1CC(NC(=O)c2c(Cl)nc(CNc3n[nH]c4cc(Cl)c(C(C)(C)C)cc34)n2C)C1 [US12065430, Example 29]	6
C=CC(=O)N1CC(NC(=O)c2c(CC)nc(CNc3n[nH]c4cc(Cl)c(C(C)(C)C)cc34)n2C)C1 [US12065430, Example 31]	642
C=CC(=O)N1CC(NC(=O)c2c(Cl)nc(CNc3n[nH]c4cc(Cl)c(C(C)(C)C)cc34)n2C(C)C)C1 [US12065430, Example 35]	8
C=CC(=O)N1CC(NC(=O)c2cnc(CNc3n[nH]c4cc(Cl)c(C)cc34)n2C)C1 [US12065430, Example 37]	5480
C=CC(=O)N1CC(NC(=O)c2cnc(CNc3n[nH]c4cc(Cl)c(C(C)(C)C)nc34)n2C)C1 [US12065430, Example 40]	27
C=CC(=O)N1CC(NC(=O)c2c(C)nc(CNc3n[nH]c4ccc(C(C)(C)C)cc34)n2C(C)C)C1 [US12065430, Example 42]	68
C=CC(=O)N1CC(NC(=O)c2c(Cl)nc(CNc3n[nH]c4cc(Cl)c(C(=C)C(F)(F)F)cc34)n2C(C)C)C1 [US12065430, Example 43]	809
C=CC(=O)N1CC(NC(=O)c2c(Cl)nc(CNc3n[nH]c4cc(Cl)c(C5(C(F)(F)F)CC5)cc34)n2C(C)C)C1 [US12065430, Example 44]	180
C=CC(=O)N1CCC(NC(=O)c2c(C)nc(CNc3n[nH]c4cc(Cl)c(C(C)(C)C)cc34)n2C)CC1 [US12065430, Example 47]	1730
C=CC(=O)N1CC(N(C)C(=O)c2c(C)nc(CNc3n[nH]c4cc(Cl)c(C(C)(C)C)cc34)n2C)C1 [US12065430, Example 49]	208
C=CC(=O)N1CC(NC(=O)c2c(C)nc(CNc3n[nH]c4cc(Cl)c(C(C)(C)C)cc34)n2C)C(F)(F)C1 (stereo not given) [US12065430, Example 53]	42
C=CC(=O)N1C[C@H](NC(=O)c2c(C)nc(CNc3n[nH]c4cc(Cl)c(C(C)(C)C)cc34)n2C)C2(CC2)C1 [US12065430, Example 54]	301
C=CC(=O)N1C[C@@H](CF)[C@@H](NC(=O)c2c(C)nc(CNc3n[nH]c4cc(Cl)c(C(C)(C)C)cc34)n2C)C1 [US12065430, Example 66]	20
C=CC(=O)N1C[C@@H](COC)[C@@H](NC(=O)c2c(C)nc(CNc3n[nH]c4cc(Cl)c(C(C)(C)C)cc34)n2C)C1 [US12065430, Example 67]	24
C=CC(=O)N1C[C@H](NC(=O)c2c(F)nc(CNc3n[nH]c4cc(Cl)c(C(C)(C)C)cc34)n2C)[C@@H](F)C1 [US12065430, Example 75]	16
C=CC(=O)N1C[C@@H](C)[C@@H](NC(=O)c2c(Cl)nc(CNc3n[nH]c4cc(Cl)c(C(C)(C)C)cc34)n2C)C1 [US12065430, Example 78]	20
Cc1nc(CNc2n[nH]c3cc(Cl)c(C(C)(C)C)cc23)n(C(C)C)c1C(=O)NC1CN(C(=O)/C=C\Cl)C1 [US12065430, Example 83]	2350
C=CS(=O)(=O)N1CC(NC(=O)c2c(C)nc(CNc3n[nH]c4cc(Cl)c(C(C)(C)C)cc34)n2C(C)C)C1 [US12065430, Example 86]	58
C=CC(=O)N1CC(NC(=O)c2c(Cl)nc(CNc3n[nH]c4cc(Cl)c(C(C)(C)C)cc34)n2CCCC)C1 [US12065430, Example 87]	14
C=CC(=O)N1CC(NC(=O)c2c(Cl)nc(CNc3n[nH]c4cc(Cl)c(C(C)(C)C)cc34)n2CC(C)C)C1 [US12065430, Example 89]	7
C=CC(=O)N1CC(NC(=O)c2c(Cl)nc(CNc3n[nH]c4cc(Cl)c(C(C)(C)C)cc34)n2CCOC)C1 [US12065430, Example 90]	6
C=CC(=O)N1CC(NC(=O)c2c(C(F)F)nc(CNc3n[nH]c4cc(Cl)c(C(C)(C)C)cc34)n2C2CCN(CC)C2)C1 (stereo not given) [US12065430, Example 92]	10
C=CC(=O)N1CC(NC(=O)c2c(C(F)F)nc(CNc3n[nH]c4cc(Cl)c(C(C)(C)C)cc34)n2C2CCN(C(C)C)C2)C1 (stereo not given) [US12065430, Example 93]	6
C=CC(=O)N1CC(NC(=O)c2c(Cl)nc(CNc3n[nH]c4cc(Cl)c(C(C)(C)C)cc34)n2-c2ccccn2)C1 [US12065430, Example 94]	118
C=CC(=O)N1CC(NC(=O)c2c(C(F)F)nc(CNc3n[nH]c4cc(Cl)c(C(C)(C)C)cc34)n2C2CCN(C(C)=O)C2)C1 (stereo not given) [US12065430, Example 96]	4
C=CC(=O)N1CC(NC(=O)c2c(Cl)nc(CNc3n[nH]c4cc(Cl)c(C(C)(C)C)cc34)n2[C@@H]2C[C@@H](O)[C@@H](O)C2)C1 [US12065430, Example 99]	7
C=CC(=O)N1CC(NC(=O)c2c(Cl)nc(CNc3n[nH]c4cc(Cl)c(C(C)(C)C)cc34)n2CC(F)F)C1 [US12065430, Example 100]	14

Further molecules by falling IC50, results first:

IC50 [nM]	Compound
4280	C=CC(=O)N1CCN(C(=O)c2c(C)nc(CNc3n[nH]c4cc(Cl)c(C(C)(C)C)cc34)n2C)CC1 [US12065430, Example 50]
2630	C/C=C/C(=O)N1CC(NC(=O)c2c(C)nc(CNc3n[nH]c4cc(Cl)c(C(C)(C)C)cc34)n2C(C)C)C1 [US12065430, Example 81]
2170	C=CC(=O)N1CC(NC(=O)c2cnc(CNc3n[nH]c4cc(Cl)c(C=C)cc34)n2C)C1 [US12065430, Example 38]
870	C=CC(=O)N1CC(NC(=O)c2cnc(CNc3n[nH]c4cc(Cl)c(CC)cc34)n2C)C1 [US12065430, Example 39]
209	CC#CC(=O)N1CC(NC(=O)c2c(C)nc(CNc3n[nH]c4cc(Cl)c(C(C)(C)C)cc34)n2C(C)C)C1 [US12065430, Example 82]
142	C=CC(=O)N1CC[C@@H](N(C)C(=O)c2cnc(CNc3n[nH]c4cc(Cl)c(C(C)(C)C)cc34)n2C)C1 [US12065430, Example 77]
99	C=CC(=O)N1C[C@@H](CN(C)C)[C@@H](NC(=O)c2c(C)nc(CNc3n[nH]c4cc(Cl)c(C(C)(C)C)cc34)n2C)C1 [US12065430, Example 68]
63	CC(C)n1c(CNc2n[nH]c3cc(Cl)c(C(C)(C)C)cc23)nc(C(F)F)c1C(=O)NC1CN(C(=O)/C=C/CN(C)C)C1 [US12065430, Example 84]
52	C=CC(=O)N1CC[C@@H](NC(=O)c2c(Cl)nc(CNc3n[nH]c4cc(Cl)c(C(C)(C)C)cc34)n2C)C1 [US12065430, Example 73]
50	C=CC(=O)N1CC(NC(=O)c2c(C(F)(F)F)nc(CNc3n[nH]c4cc(Cl)c(C(C)(C)C)cc34)n2C(C)C)C1 [US12065430, Example 32]
44	C=CC(=O)N1CC(NC(=O)c2c(C(F)F)nc(CNc3n[nH]c4cc(Cl)c(C(C)(C)C)cc34)n2CC2CCCN2C(C)C)C1 (stereo not given) [US12065430, Example 95]
42	C=CC(=O)N(C)C1CN(C(=O)c2c(C)nc(CNc3n[nH]c4cc(Cl)c(C(C)(C)C)cc34)n2C)C1 [US12065430, Example 51]
36	C=CC(=O)N1C[C@@H](C)[C@@H](NC(=O)c2c(F)nc(CNc3n[nH]c4cc(Cl)c(C(C)(C)C)cc34)n2C)C1 [US12065430, Example 74]
24	C=CC(=O)N1CC(NC(=O)c2c(Cl)nc(CNc3n[nH]c4cc(Cl)c(C(C)C)cc34)n2C(C)C)C1 [US12065430, Example 45]
19	C=CC(=O)N1C[C@@H](CC#N)[C@@H](NC(=O)c2c(C)nc(CNc3n[nH]c4cc(Cl)c(C(C)(C)C)cc34)n2C)C1 [US12065430, Example 65]
14	C=CC(=O)N1CC(NC(=O)c2c(C)nc(CNc3n[nH]c4cc(C)c(C(C)(C)C)cc34)n2C)C1 [US12065430, Example 41]
13	C=CC(=O)N1CC(NC(=O)c2c(F)nc(CNc3n[nH]c4cc(Cl)c(C(C)(C)C)cc34)n2C(C)C)C1 [US12065430, Example 34]
13	C=CC(=O)N1C[C@H](NC(=O)c2c(Cl)nc(CNc3n[nH]c4cc(Cl)c(C(C)(C)C)cc34)n2C)[C@@H](F)C1 [US12065430, Example 76]
11	C=CC(=O)N1CC(NC(=O)c2c(F)nc(CNc3n[nH]c4cc(Cl)c(C(C)(C)C)cc34)n2C)C1 [US12065430, Example 30]
8	C=CC(=O)N1CC(NC(=O)c2c(Br)nc(CNc3n[nH]c4cc(Cl)c(C(C)(C)C)cc34)n2C)C1 [US12065430, Example 27]
7	C=CC(=O)N1CC(NC(=O)c2c(C(F)F)nc(CNc3n[nH]c4cc(Cl)c(C(C)(C)C)cc34)n2C2CCN(C)C2)C1 (stereo not given) [US12065430, Example 91]
7	C=CC(=O)N1CC(NC(=O)c2c(Cl)nc(CNc3n[nH]c4cc(Cl)c(C(C)(C)C)cc34)n2C2CC=CC2)C1 [US12065430, Example 98]
